Laboratory results reported in US11261454B2, “Method for introducing a polynucleotide into non-adhesively growing plant cells” (ScreenSYS GmbH, priority 2010, dated 2022).
One block for each compound: values may come before it.

Tests used:
[1] = tested on: auxin sensor construst; assay: Luciferase activity measurement with auxin sensor construct (firefly/renilla ratio); format: cell-based
Excerpt: Our further aim to combine PPTT with amiRNA and other functional screenings such as split-GFP, split-YFP etc. Since co-expression of vectors works perfect, split screenings could be done straight away using confirmed interacting pair. Transformation with the luciferase reporter and subsequent luciferase activity measurements were successfully tested using auxin sensor construst (FIG. 19).

[2] = tested on: PIN1; assay: Expression of amiR^PIN1 in stable transgenic lines, plant phenotypes; format: in vivo, Arabidopsis (Col-0 wild-type background); conditions: independent lines
[3] = tested on: protoplasts from wild type tobacco; assay: Quantitative analysis of auxin mediated cell expansion of immobilised tobacco protoplasts (automated imaging); format: cell-based; conditions: auxin 0 to 50 μM, at least 200 cells per group
Excerpt: We compared the effect of auxin concentration on cell elongation over a continuous period (4-6 days) using tobacco leaf protoplasts from wild type tobacco and from the tobacco line overexpressing AtPIN8 translationally fused with Venus fluorescent marker protein (PIN8VenusOx). Two strategies were used: • effect of PIN5 and PIN8 expression on cell elongation using transient transformation with dried DNA, protoplast immobilization and culture with manual cell imaging and tracking. • effect of auxin concentration (0, 1 pM, 10 pM, 100 pM, 500 pM, 1 nM, 10 nM, 100 nM, 500 nM, 1 μM, 2.5 μM, 5 μM, 10 μM, 25 μM and 50 μM) and quantitative analysis of cell elongation to compare wild type and PIN8VenusOx protoplasts using automated imaging (every 24 h for 4 days, 5 reference points) and computational image analysis.
Protoplasts were isolated and immobilized using our procedure described in the current patent application. Culture medium with final auxin concentration of 0, 1 pM, 10 pM, 100 pM, 500 pM, 1 nM, 10 nM, 100 nM, 500 nM, 1 μM, 2.5 μM, 5 μM. 10 μM. 25 μM and 50 μM was used for washing steps and cell culture afterwards in corresponding wells. […] This experiment allowed to extract quantitative information for hundreds cells per group, the whole experiment was performed in a single 96-well plate. […]

effect on firefly/renilla ratio [1]: Concentration-dependent effect
Compound: O=C(O)Cc1cccc2ccccc12 [NAA]

Compound: amiR^P33: artificial miRNA TACGATTTGAACCATGAGGCC, SEQ ID NO:10 (expressed or natural sequence)
rosette leaf phenotype of transgenic plants ([2]; 2 weeks after germination): Altered phyllotaxis pattern of rosette leaves | shoot phenotype of transgenic lines [2]: Altered shoot phyllotaxis and pin1-like shoot phenotypes

Compound: auxin
cell expansion of developing protoplasts [3]: Concentration-depended cell expansion
